From patent publication US9243002B2, “Tetracyclic heterocycle compounds and methods of use thereof for the treatment of hepatitis C” (priority 2013, dated 2016)
pIC50: −log10 of the molar value. Where two headings read alike, the source gives them in different places.

How the values were obtained:
[1] = system: HCV genotype 1a replicon; experiment: HCV replicon assay, genotype 1a (cell ELISA for NS3/4A); type: cell-based, hepatitis C virus; settings: for IC50: Hepatitis C virus, 96 h, read-out: 1a IC50 (nM), genotype 1a replicon cells, 96 hours incubation, NS3/4A ELISA; for pIC50: read-out: 1a IC50, genotype 1a replicon cells, 96 hours incubation, NS3/4A ELISA
Experimental: (§1) Measurement of inhibition by compounds was performed using the HCV replicon system. Several different replicons encoding different HCV genotypes or mutations were used. In addition, potency measurements were made using different formats of the replicon assay, including different ways of measurements and different plating formats. See Jan M. Vrolijk et al., A replicons-based bioassay for the measurement of interferons in patients with chronic hepatitis C, 110 J. VIROLOGICAL METHODS 201 (2003); Steven S. Carroll et al., Inhibition of Hepatitis C Virus RNA Replication by 2′-Modified Nucleoside Analogs, 278 (14) J. BIOLOGICAL CHEMISTRY 11979 (2003). However, the underlying principles are common to all of these determinations, and are outlined below.
(§2) Stable neomycin phosphotransferase encoding replicons-harboring cell lines were used, so all cell lines were maintained under G418 selection prior to the assay. Potency was deteremined using a cell ELISA assay with an antibody to the replicons encoded NS3/4a protease. See Caterina Trozzi et al., In Vitro Selection and Characterization of Hepatitis C Virus Serine Protease Variants Resistant to an Active-Site Peptide Inhibitor, 77 (6) J. Virol. 3669 (2003). To initiate an assay, replicon cells were plated in the presence of a dilution series of test compound in the absence of G418. Typically, the assays were performed in a 96-well plate formate for manual operation, or a 384-well plate format for automated assay. Replicon cells and compound were incubated for 96 hours. At the end of the assay, cells were washed free of media and compound, and the cells were then lysed. RNA was quantified indirectly through detection of replicon-encoded NS3/4A protein levels, through an ELISA-based assay with an antibody specific for NS3/4A. IC50 determinations were calculated as a percentage of a DMSO control by fitting the data to a four-parameter fit function and the data obtained for genotypes 1a and 1b using this method is provided in the table below.

[2] = system: HCV genotype 1b replicon; experiment: HCV replicon assay, genotype 1b (cell ELISA for NS3/4A); type: cell-based, hepatitis C virus; settings: for IC50: Hepatitis C virus, 96 h, read-out: 1b IC50 (nM), genotype 1b replicon cells, 96 hours incubation, NS3/4A ELISA; for pIC50: read-out: 1b IC50, genotype 1b replicon cells, 96 hours incubation, NS3/4A ELISA
Experimental: as §1, §2

CNC(=O)c1c(C2CC2)oc2cc(N(C)S(C)(=O)=O)c(-c3ccc4c(n3)-c3cc5c(F)cccc5n3CC4)cc12 [Example 16]
IC50 [1]: 27 nM
IC50 [2]: 14.6 nM

CNC(=O)c1c(-c2cnc(C(C)(C)O)s2)oc2cc(N(C)S(C)(=O)=O)c(-c3ccc4c(n3)-c3cc5c(F)cccc5n3CC4)cc12 [Example 20]
IC50 [1]: 680 nM
IC50 [2]: 129 nM

CNC(=O)c1c(-c2ccc(F)cc2)oc2cc(N(C)S(C)(=O)=O)c(-c3cc4c(nn3)CCn3c-4cc4c(F)cccc43)cc12 [Example 48, 5-(11-fluoro-5,6-dihydropyridazino[4′,3′:3,4]pyrido[1,2-a]indol-2-yl)-2-(4-fluorophenyl)-N-methyl-6-(N-methylmethylsulfonamido)benzofuran-3-carboxamide]
IC50 [1]: 1.72 nM
IC50 [2]: 2.64 nM

CNC(=O)c1c(-c2ccc(F)cc2)oc2cc(N(C)S(C)(=O)=O)c(-c3ccc4c(n3)-c3cc5c(F)cccc5n3CCCC4)cc12 [Example 99, 5-(13-fluoro-5,6,7,8-tetrahydropyrido[2′,3′:3,4]azocino[1,2-a]indol-2-yl)-2-(4-fluorophenyl)-N-methyl-6-(N-methylmethylsulfonamido)benzofuran-3-carboxamide]
IC50 [1]: 6.5 nM
IC50 [2]: 7.17 nM

CNC(=O)c1c(-c2ccc(F)cc2)nn2cc(N(C)S(C)(=O)=O)c(-c3ccc4c(n3)-c3cc5c(F)cccc5n3CC4)cc12 [Example 46, 5-(11-fluoro-5,6-dihydroindolo[1,2-h][1,7]naphthyridin-2-yl)-2-(4-fluorophenyl)-N-methyl-6-(N-methylmethylsulfonamido)pyrazolo[1,5-a]pyridine-3-carboxamide]
IC50 [1]: 2.23 nM
IC50 [2]: 2.4 nM

CNC(=O)c1c(-c2ccc(F)nc2)oc2cc(N(C)S(C)(=O)=O)c(-c3ccc4c(n3)-c3cc5c(F)cccc5n3CC4)cc12 [Example 15]
IC50 [1]: 3.41 nM
IC50 [2]: 5.09 nM

CNC(=O)c1c(-c2cnc(C)c(F)c2)oc2cc(N(C)S(C)(=O)=O)c(-c3ccc4c(n3)-c3cc5c(F)cccc5n3CC4)cc12 [Example 14]
IC50 [1]: 26.4 nM
IC50 [2]: 24.3 nM

CNC(=O)c1c(-c2ccc(F)cc2F)oc2cc(N(C)S(C)(=O)=O)c(-c3ccc4c(n3)-c3cc5c(F)cccc5n3C(CS(C)(=O)=O)C4)cc12 (stereo not drawn) [Example 59]
pIC50 [1]: 8.26
pIC50 [2]: 8.54

CNC(=O)c1c(-c2cnn3c2CCC3)oc2cc(N(C)S(C)(=O)=O)c(-c3ccc4c(n3)-c3cc5c(F)cccc5n3CC4)cc12 [Example 19]
IC50 [1]: 56.9 nM
IC50 [2]: 52.3 nM

CNC(=O)c1c(-c2cnn3c2CCCC3)oc2cc(N(C)S(C)(=O)=O)c(-c3ccc4c(n3)-c3cc5c(F)cccc5n3CC4)cc12 [Example 21]
IC50 [1]: 149 nM
IC50 [2]: 34.3 nM

CNC(=O)c1c(-c2ccc(F)cc2C#N)oc2cc(N(C)S(C)(=O)=O)c(-c3ccc4c(n3)-c3cc5c(F)cccc5n3CC4)cc12 [Example 13]
IC50 [1]: 17.3 nM
IC50 [2]: 16.5 nM

CNC(=O)c1c(-c2ccc(F)cc2)oc2cc(N(C)S(C)(=O)=O)c(-c3ccc4c(n3)-c3cc5c(F)cccc5n3C4O)cc12 (stereo not drawn) [Example 87, 5-(10-fluoro-5-hydroxy-5H-pyrido[2′,3′:3,4]pyrrolo[1,2-a]indol-2-yl)-2-(4-fluorophenyl)-N-methyl-6-(N-methylmethylsulfonamido)benzofuran-3-carboxamide]
IC50 [1]: 7.69 nM
IC50 [2]: 7.29 nM

CNC(=O)c1c(-c2ccc(F)cc2)oc2cc(N(C)S(C)(=O)=O)c(-c3ccc4c(n3)-c3c(C)c5ccccc5n3CC4)cc12 [Example 76, 2-(4-fluorophenyl)-N-methyl-5-(12-methyl-5,6-dihydroindolo[1,2-h][1,7]naphthyridin-2-yl)-6-(N-methylmethylsulfonamido)benzofuran-3-carboxamide]
IC50 [1]: 1000 nM
IC50 [2]: 194 nM

CNC(=O)c1c(-c2ccc(F)cc2)oc2cc(N(C)S(C)(=O)=O)c(-c3cnc4c(c3)-c3cc5c(F)cccc5n3CC4)cc12 [Example 43, 5-(11-fluoro-5,6-dihydroindolo[2,1-f][1,6]naphthyridin-2-yl)-2-(4-fluorophenyl)-N-methyl-6-(N-methylmethylsulfonamido)benzofuran-3-carboxamide]
IC50 [1]: 1.74 nM
IC50 [2]: 3.7 nM

CNC(=O)c1c(-c2ccc(F)cc2)oc2cc(N(C)S(C)(=O)=O)c(-c3ccc4c(n3)-c3cc5c(F)cccc5n3C(CN3CCC3)C4)cc12 (stereo not drawn) [Example 92]
IC50 [1]: 46.5 nM
IC50 [2]: 2.55 nM

CNC(=O)c1c(-c2ccc(F)cc2F)oc2cc(N(C)S(C)(=O)=O)c(-c3ccc4c(n3)-c3cc5c(F)cccc5n3C(CS(C)(=O)=O)C4)cc12 (stereo not drawn) [Example 58]
pIC50 [1]: 8.82
IC50 [2]: 1.71 nM

CNC(=O)c1c(-c2cnc3c(c2)OCCO3)oc2cc(N(C)S(C)(=O)=O)c(-c3ccc4c(n3)-c3cc5c(F)cccc5n3CC4)cc12 [Example 8]
IC50 [1]: 580 nM
IC50 [2]: 122 nM

CNC(=O)c1c(-c2ccc(F)cc2)oc2cc(N(C)S(C)(=O)=O)c(-c3ccc4c(n3)-c3cc5nc(OC)ccc5n3CC4)cc12 [Example 78]
IC50 [1]: 206 nM
IC50 [2]: 22.1 nM

CNC(=O)c1c(-c2ccc(F)cc2)oc2cc(N(C)S(C)(=O)=O)c(-c3ccc4c(n3)-c3cc5c(F)cccc5n3C(CF)C4)cc12 (stereo not drawn) [Example 96, 5-(11-fluoro-6-(fluoromethyl)-5,6-dihydroindolo[1,2-h][1,7]naphthyridin-2-yl)-2-(4-fluorophenyl)-N-methyl-6-(N-methylmethylsulfonamido)benzofuran-3-carboxamide]
IC50 [1]: 7.89 nM
IC50 [2]: 3.18 nM

CNC(=O)c1c(-c2ccc(F)cc2)oc2cc(N(C)S(C)(=O)=O)c(-c3ccc4c(n3)-c3cc5c(F)cccc5n3C(CS(C)(=O)=O)C4)cc12 (single isomer, unassigned) [Example 57, (S or R)-5-(11-fluoro-6-((methylsulfonyl)methyl)-5,6-dihydroindolo[1,2-h][1,7]naphthyridin-2-yl)-2-(4-fluorophenyl)-N-methyl-6-(N-methylmethylsulfonamido)benzofuran-3-carboxamide]
pIC50 [1]: 8.09
pIC50 [2]: 8.47

CNC(=O)c1c(-c2ccc(C(C)C)nc2)oc2cc(N(C)S(C)(=O)=O)c(-c3ccc4c(n3)-c3cc5c(F)cccc5n3CC4)cc12 [Example 11]
IC50 [1]: 2120 nM
IC50 [2]: 661 nM

CNC(=O)c1c(-c2ccc(F)cc2)oc2cc(N(C)S(C)(=O)=O)c(-c3cnc4c(n3)-c3cc5c(F)cccc5n3CC4)cc12 [Example 44, 5-(11-fluoro-5,6-dihydropyrazino[2′,3′:3,4]pyrido[1,2-a]indol-2-yl)-2-(4-fluorophenyl)-N-methyl-6-(N-methylmethylsulfonamido)benzofuran-3-carboxamide]
IC50 [1]: 1.76 nM
IC50 [2]: 1.87 nM

CNC(=O)c1c(-c2ccc(F)cc2)oc2cc(N(C)S(C)(=O)=O)c(-c3ccc4c(n3)-c3cc5c(F)cccc5n3C(CN3CC(F)(F)C3)C4)cc12 (stereo not drawn) [Example 91]
IC50 [1]: 27.6 nM
IC50 [2]: 9.23 nM

CNC(=O)c1c(-c2ccc(F)cc2)oc2cc(N(C)S(C)(=O)=O)c(-c3ccc4c(n3)-c3cc5c(C#N)cccc5n3CCC4)cc12 [Example 73]
IC50 [1]: 2.01 nM
IC50 [2]: 2.78 nM

CNC(=O)c1c(-c2ccc(C)nc2)oc2cc(N(C)S(C)(=O)=O)c(-c3ccc4c(n3)-c3cc5c(F)cccc5n3C(CCN3CC(F)C3)C4)cc12 (stereo not drawn) [Example 66, 5-(11-fluoro-6-(2-(3-fluoroazetidin-1-yl)ethyl)-5,6-dihydroindolo[1,2-h][1,7]naphthyridin-2-yl)-N-methyl-6-(N-methylmethylsulfonamido)-2-(6-methylpyridin-3-yl)benzofuran-3-carboxamide]
pIC50 [1]: 7.89
pIC50 [2]: 7.94

CCc1ncc(-c2oc3cc(N(C)S(C)(=O)=O)c(-c4ccc5c(n4)-c4cc6c(F)cccc6n4CC5)cc3c2C(=O)NC)s1 [Example 38]
IC50 [1]: 21.8 nM
IC50 [2]: 17 nM

CNC(=O)c1c(-c2ccc(OC(F)F)nc2)oc2cc(N(C)S(C)(=O)=O)c(-c3ccc4c(n3)-c3cc5c(F)cccc5n3CC4)cc12 [Example 2]
IC50 [1]: 2.09 nM
IC50 [2]: 3.9 nM

CNC(=O)c1c(-c2ccc(F)cc2)oc2cc(N(C)S(C)(=O)=O)c(-c3ccc4ccn5c6cccc(C#N)c6cc5c4n3)cc12 [Example 83]
IC50 [1]: 1.49 nM
IC50 [2]: 3.44 nM

CNC(=O)c1c(-c2ccc(F)cc2)oc2cc(N(C)S(C)(=O)=O)c(-c3ccc4ccn5c6ccc(OC)nc6cc5c4n3)cc12 [Example 80]
IC50 [1]: 27.7 nM
IC50 [2]: 9.77 nM

CNC(=O)c1c(-c2ccc(F)cc2C)oc2cc(N(C)S(C)(=O)=O)c(-c3ccc4c(n3)-c3cc5c(F)cccc5n3CC4)cc12 [Example 10]
IC50 [1]: 9.44 nM
IC50 [2]: 10.7 nM
